Assay results: BigSolDB 2.1

CC1(C)COP(=O)(Oc2cccc(OP3(=O)OCC(C)(C)CO3)c2)OC1
solubility (mole fraction)
Details | 293.15 K | 298.15 K | 303.15 K | 308.15 K | 313.15 K | 318.15 K | 323.15 K | 328.15 K | 333.15 K
in 1,2-dichloroethane | 0.017 | 0.0199 | 0.0233 | 0.0273 | 0.0317 | 0.0366 | 0.0423 | 0.0491 | 0.0564
in acetone | 0.00607 | 0.00796 | 0.0103 | 0.0131 | 0.0163 | 0.0201 | 0.0251 | – | –
in acetonitrile | 0.0102 | 0.0127 | 0.0153 | 0.0191 | 0.0231 | 0.0279 | 0.0342 | 0.0405 | 0.0491
in chloroform | 0.0646 | 0.07 | 0.0751 | 0.0807 | 0.086 | 0.0923 | 0.0984 | – | –
in ethanol | 0.00179 | 0.0024 | 0.00313 | 0.00413 | 0.00541 | 0.00702 | 0.00902 | 0.0118 | 0.0151
in ethyl acetate | 0.0008 | 0.00099 | 0.00123 | 0.00154 | 0.00189 | 0.00233 | 0.00284 | 0.00348 | 0.0042
in ethyl formate | 0.00422 | 0.00508 | 0.00607 | 0.00713 | 0.00842 | 0.00988 | 0.0116 | – | –
in methanol | 0.0022 | 0.00357 | 0.00543 | 0.0085 | 0.0129 | 0.0187 | 0.0284 | – | –
in methyl acetate | 0.00229 | 0.00281 | 0.00347 | 0.00422 | 0.00511 | 0.0062 | 0.00745 | – | –
in n-hexane | 1e-05 | 2e-05 | 2e-05 | 4e-05 | 6e-05 | 8e-05 | 0.00012 | – | –
in n-propanol | 0.00096 | 0.00135 | 0.00187 | 0.0026 | 0.00356 | 0.00495 | 0.00658 | 0.00899 | 0.0118
in toluene | 0.00016 | 0.0002 | 0.00026 | 0.00032 | 0.0004 | 0.00049 | 0.00061 | 0.00076 | 0.0009
